Results as given in paper PMC9864330, “Two New Alkaloids and a New Butenolide Derivative from the Beibu Gulf Sponge-Derived Fungus Penicillium sp. SCSIO 41413” (Marine Drugs, 2022).
pIC50: −log10 of the molar value.

Target: PI3K (phosphatidylinositol 3-kinase)
Experiment: PI3K enzyme activity assay, dose response […]
Format: biochemical

| pIC50 | Structure (SMILES) |
| --- | --- |
| 5.01 | O=C1OC(O)C(Cc2ccc(O)cc2)=C1c1ccc(O)c(O)c1 (racemic) [compound 12, 8-hydroxyhelvafuranone] |
| 5.77 | O=C1OCC(Cc2ccc(O)c(O)c2)=C1c1ccc(O)c(O)c1 [compound 11, eutypoid F] |
